These results are taken from US10494332B2, “Protein tyrosine phosphatases or SHP2 inhibitors and uses thereof” (Indiana University Research and Technology Corporation, priority 2015, dated 2019).

Test [1] concerns the target T1, PP5 (Homo sapiens, UniProt P53041).
T1 sequence (P53041 1-499): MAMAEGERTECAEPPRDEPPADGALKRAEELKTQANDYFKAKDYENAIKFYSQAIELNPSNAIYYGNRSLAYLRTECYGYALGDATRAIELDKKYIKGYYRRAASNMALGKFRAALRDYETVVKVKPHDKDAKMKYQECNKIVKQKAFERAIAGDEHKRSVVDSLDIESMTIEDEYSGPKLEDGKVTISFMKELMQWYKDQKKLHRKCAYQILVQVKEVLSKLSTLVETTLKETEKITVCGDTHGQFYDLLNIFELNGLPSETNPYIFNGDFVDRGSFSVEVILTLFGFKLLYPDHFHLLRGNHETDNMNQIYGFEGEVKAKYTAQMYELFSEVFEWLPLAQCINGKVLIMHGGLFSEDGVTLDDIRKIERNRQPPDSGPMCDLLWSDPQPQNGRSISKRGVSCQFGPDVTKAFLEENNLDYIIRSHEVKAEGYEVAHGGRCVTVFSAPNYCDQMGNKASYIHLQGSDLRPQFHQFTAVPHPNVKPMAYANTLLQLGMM
The experiment in a line: biochemical.

The test system of test [2] is EGF-mediated ERK1/2 phosphorylation in H1975 cells. The experiment in a line: EGF-induced ERK1/2 phosphorylation immunoblot. The conditions noted are these: compound 7 at 40 μM. Format: cell-based, human. The method, then:
(§1) Human non-small cell lung carcinoma cell line H1975 was cultured at 37° C. and 5% CO2 in RPMI-1640 (Corning) supplemented with 10% fetal bovine serum (HyClone). Human breast cancer cell line MDA-MB-231 was cultured in DMEM supplemented with 10% fetal bovine serum. For cell proliferation assay, 2˜3×10^3 cells were seeded in each well of 96-well plates. After treating cells with compounds for 2 days, cells were incubated with 50 μg/ml MTT (3-(4,5-Dimethylthiazol-2-yl)-2,5-diphenyltetrazolium bromide) for ˜3-4 hours. Then, the culture medium was removed, DMSO was added to dissolve the formazan crystals. Wells containing only media were used for background correction. The optical density was measured spectrophotometrically at 540 nm. For signaling analysis, cells were serum-starved overnight followed by treatment with vehicle or compounds for 3 hours, and then either left un-stimulated or stimulated with 5 μg/ml EGF or 10 nM PMA (Sigma) for indicated time. Cells were lysed and the lysates were electrophoresed on a 10% polyacrylamide gel, and then transferred to a nitrocellulose membrane, and probed with anti-phospho-ERK1/2 and anti-ERK1/2 (Cell Signaling) antibodies followed by incubation with horseradish peroxidase-conjugated secondary antibodies. The blots were developed by the enhanced chemiluminescence technique using the SuperSignal West Pico Chemiluminescent substrate (Pierce).
A general note: A western blot detects proteins with antibodies after separation by electrophoresis.

For test [3], the system named is H1975 non-small cell lung cancer (NSCLC) cell line. The experiment in a line: MTT cell proliferation assay. Format: cell-based, human. To be noted: 20 μM and 40 μM, 2 days. The protocol: as §1
A general note: Formazan colour is commonly taken as a measure of viable cells.

The test system of test [4] is MDA-MB-231 breast cancer cell line. Briefly: MTT cell proliferation assay. The test is classed as cell-based, human. The conditions noted are these: 20 μM and 40 μM, 2 days. The protocol:
as §1

The test system of test [5] is PMA-stimulated ERK1/2 phosphorylation. Briefly: PMA-induced ERK1/2 phosphorylation immunoblot. Format: cell-based, human. The method, then: as §1
For test [6], the target named is PTPμ (Homo sapiens, UniProt P28827). Briefly: biochemical.
Sequence of PTPμ (P28827 21-1452): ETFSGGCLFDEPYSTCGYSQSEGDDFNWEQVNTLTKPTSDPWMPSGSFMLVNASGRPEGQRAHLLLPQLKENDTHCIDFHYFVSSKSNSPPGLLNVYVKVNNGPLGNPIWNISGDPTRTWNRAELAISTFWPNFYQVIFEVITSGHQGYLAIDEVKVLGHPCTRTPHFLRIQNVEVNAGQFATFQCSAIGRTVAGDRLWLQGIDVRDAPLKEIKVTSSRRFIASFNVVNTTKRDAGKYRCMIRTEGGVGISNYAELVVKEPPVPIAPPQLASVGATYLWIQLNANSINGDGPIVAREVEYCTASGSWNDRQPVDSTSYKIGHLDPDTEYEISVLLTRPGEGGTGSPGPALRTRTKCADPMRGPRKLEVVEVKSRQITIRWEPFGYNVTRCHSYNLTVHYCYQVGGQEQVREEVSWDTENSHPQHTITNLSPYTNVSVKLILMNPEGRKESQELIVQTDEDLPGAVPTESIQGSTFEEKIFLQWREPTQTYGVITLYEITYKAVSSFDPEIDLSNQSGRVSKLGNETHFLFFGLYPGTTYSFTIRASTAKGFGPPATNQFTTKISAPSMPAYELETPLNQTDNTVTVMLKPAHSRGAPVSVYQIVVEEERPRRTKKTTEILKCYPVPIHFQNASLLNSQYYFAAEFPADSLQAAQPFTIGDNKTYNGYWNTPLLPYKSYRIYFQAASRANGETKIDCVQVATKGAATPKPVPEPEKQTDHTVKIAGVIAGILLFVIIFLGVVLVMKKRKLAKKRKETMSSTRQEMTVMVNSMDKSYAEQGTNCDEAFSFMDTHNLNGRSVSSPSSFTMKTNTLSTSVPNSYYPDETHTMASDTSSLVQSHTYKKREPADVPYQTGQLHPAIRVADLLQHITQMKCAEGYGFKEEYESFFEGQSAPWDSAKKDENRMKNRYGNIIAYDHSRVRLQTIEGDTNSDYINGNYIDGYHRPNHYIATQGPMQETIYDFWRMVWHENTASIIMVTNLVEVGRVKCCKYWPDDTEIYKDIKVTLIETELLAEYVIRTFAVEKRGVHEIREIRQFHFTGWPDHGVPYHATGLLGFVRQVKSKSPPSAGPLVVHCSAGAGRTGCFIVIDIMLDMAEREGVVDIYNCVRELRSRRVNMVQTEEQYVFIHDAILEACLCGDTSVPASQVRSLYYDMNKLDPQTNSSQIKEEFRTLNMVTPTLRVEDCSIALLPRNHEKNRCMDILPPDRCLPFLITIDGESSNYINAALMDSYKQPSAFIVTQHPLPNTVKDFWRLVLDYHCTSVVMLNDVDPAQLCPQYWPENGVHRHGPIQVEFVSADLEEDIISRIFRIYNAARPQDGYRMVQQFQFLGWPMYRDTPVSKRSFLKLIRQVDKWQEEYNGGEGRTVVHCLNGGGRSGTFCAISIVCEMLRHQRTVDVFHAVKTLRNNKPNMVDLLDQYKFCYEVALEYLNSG
For test [7], the system named is ERK1/2 phosphorylation in SKBR3 cells. Briefly: ERK1/2 immunoblot of cells recovered from Matrigel. The conditions noted are these: 5 days. Format: cell-based. The protocol: (§2) Approximately 300,000 SKBR3 cells were seeded into 150 μL of growth factor reduced Matrigel (BD) that was then covered with 2 mLs of media containing either 20 μL vehicle (DMSO) or the indicated concentrations of compound 2. Cells were then imaged at 24-hour intervals using a NIKON SMZ1500 stereomicroscope. After 5 days the cells were recovered from the Matrigel by the following method. Media was aspirated and cells were washed with 500 μL of cold PBS. 150 μL of RIPA lysis buffer supplemented with ProteCEASE-50. EDTA Free protease inhibitors (GBiosciences) was added to the Matrigel. Cells were scraped into a slurry and instantly frozen using dry ice for 5 minutes. After thawing tubes were spun down at 4° C. for 10 minutes at 14K rpm. Proteins were then resolved by SDS-PAGE and the relative levels of total and phospho-ERK1/2 were detected by immunoblot analysis.

The test system of test [8] is SKBR3 cells. The experiment in a line: Cell growth in 3D Matrigel. The conditions noted are these: 5 days. The test is classed as cell-based. The protocol:
as §2

The target in test [9] is T2, SHP2 (Homo sapiens, UniProt Q06124).
T2 sequence (Q06124 224-528): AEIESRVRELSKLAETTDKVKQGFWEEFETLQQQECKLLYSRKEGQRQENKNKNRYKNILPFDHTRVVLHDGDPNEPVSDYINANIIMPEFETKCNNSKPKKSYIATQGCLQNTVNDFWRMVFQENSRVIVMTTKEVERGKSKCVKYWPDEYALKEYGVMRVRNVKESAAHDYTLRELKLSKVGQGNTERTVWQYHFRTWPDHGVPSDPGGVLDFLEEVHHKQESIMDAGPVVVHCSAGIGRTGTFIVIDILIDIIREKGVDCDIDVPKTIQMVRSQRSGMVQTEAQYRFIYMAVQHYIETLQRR
Briefly: SHP2 phosphatase inhibition assay (pNPP). The test is classed as biochemical.

“Also recorded” adds a separate entry of the source.

Broadly, the IC50 is the concentration that inhibits the measured activity by half. As to `O=C(Nc1ccc(I)cc1)C(=O)Nc1ccc(NC(=O)C(c2ccccc2)S(=O)(=O)O)cc1` (stereo not drawn) [Compound 2, 2-((4-(2-((4-iodophenyl)amino)-2-oxoacetamido)phenyl)amino)-2-oxo-1-phenylethanesulfonic acid], the IC50 is over 10 µM in [1]; over 10 µM in test [6]; 1.51 ± 0.06 µM in [9] (Example 9: SHP2 catalytic domain 20 nM, pNPP 3 mM, pH 7.0, 25° C., read-out: IC50 SHP2). Moreover, the “Effect on EGF-mediated ERK1/2 phosphorylation” value in test [2] was “reduced EGF-mediated ERK1/2 phosphorylation in a dose-dependent manner; also recorded: decrease the EGF-mediated ERK1/2 phosphorylation in a dose dependent manner”. In addition, in test [3], the “H1975 cell proliferation (MTT)” value was “reduce H1975 cell proliferation in a dose dependent manner; also recorded: dose dependently inhibited; also recorded: significantly (**p<0.01) reduced cell proliferation”. The “MDA-MB-231 cell survival/growth (MTT)” value in test [4] is “dose dependently inhibited; also recorded: significantly (**p<0.01) reduced cell survival”. Moreover, the “Effect on PMA-stimulated ERK1/2 phosphorylation” value in test [5] was “no effect on PMA-stimulated ERK1/2 phosphorylation”. The figures for the “ERK1/2 activity in SKBR3 cells in Matrigel” value in test [7] (20 μM) and in test [7] (40 μM) were “partial inhibition” and “barely detectable”, respectively. Besides, the “SKBR3 cell growth in Matrigel” value is “partial inhibition” in test [8] (20 μM) and “almost completely absent” in [8] (40 μM). In test [9] (cefsulodin: with the exception of SHP1), the “Fold selectivity for SHP2 against PTPs examined” value is “at least 4 fold”.
